Key:
C57BL/6J mice = assay: Novel object recognition test, old mice; format: in vivo, mouse; conditions: old mice with exercise and surgery; intraperitoneal valeric acid once a week vs normal saline
IL-17 = assay: ELISA of IL-17 in the brain; format: in vivo, mouse
Protocol: Mice were weighed and anesthetized with isoflurane at 24 h after MCAO. Blood samples were obtained from the right heart after thoracotomy. Blood was centrifuged (13,000 g, 4° C.) after it had been placed at 4° C. for 2 h for the collection of serum. After the collection of blood, mice were perfused with 4° C. saline for brain tissue harvesting. The cerebral cortex (anteroposterior: −1.5 to 2.5 mm, mediolateral: 1.0 to 3.0 mm) was dissected out. All dissection procedures were performed on ice.
IL-10, IL-17, IL-1β and IL-6 in the serum and brain were detected by using ELISA kits (catalog number: M1000B, M1700, MLB00C and D6050, R&D SYSTEM, Inc., Minneapolis, MN, USA) as we described before. The brain tissues were homogenized on ice in the RIPA buffer containing 25 mM Tris-HCl with pH 7.6, 150 mM NaCl, 1% sodium deoxycholate and 0.1% SDS (catalog number: 89901, Thermo Scientific, Rockford, IL, USA) and a protease inhibitor cocktail containing 10 mg/ml aproteinin, 5 mg/ml peptastin, 5 mg/ml leupetin and 1 mM phenylmethane sulfonylfluoride (catalog number: SRE0055, Sigma-Aldrich, St. Louis, MO, USA). The supernatant was collected for ELISA detection after being centrifuged for 20 min (13,000 g, 4° C.) and the protein concentration was determined by the BCA method. Cytokines in the serum and supernatant of brain were detected according to the manufacturer's instruction. The amount of IL-10, IL-17, IL-1β and IL-6 in each sample in the brain was normalized by its protein content.

[1] = Cortical valeric acid quantification by HPLC; format: in vivo, mouse; conditions: 9-week old mice, intraperitoneal valeric acid vs normal saline; 24 h after the last injection
Protocol: The amount of valeric acid in the cerebral cortex harvested 24 h after the last intraperitoneal injection of valeric acid was determined by a method similar to that reported before. Briefly, 0.1 g cerebral cortex was homogenized in 500 μl aqueous acetonitrile. Supernatant was extracted with 8 ml extraction buffer (hexane: diethyl ether=1:1) and centrifuged at 1800 g for 5 min. 7.5 ml supernatant was collected, mixed with 93 μl 20 mM KOH in methanol and dried at 40° C. under nitrogen gas. Dried residue was reconstituted in 50 μl 2.5% 18-Crown-6 in acetonitrile and was further derivatized with 9-chloromethylanthracene in acetonitrile with addition of tetramethylammonium hydroxide. Finally, 30 μl derivatization solution was loaded to Acclaim C18 column (3 μm, 4.6×100 mm, Thermo Scientific) and separated in Ultimate 3000 high performance liquid chromatograph (HPLC, Thermo Scientific) equipped with UV-visible detector. The peak of derivatized valeric acid was detected at a wavelength of 254 nm. 2-Ethylbutyric acid (2-EA) was added as an internal reference control. The peak area of valeric acid was measured as mAU*min and its peak area of each sample was normalized with that of 2-EA in the sample. Final results were presented as ratios of valeric acid group to NS group.

GDNF = GDNF in the hippocampus by ELISA; format: in vivo, mouse; conditions: exercise mice with surgery; intraperitoneal valeric acid
Protocol: IL-1β, IL-6, C3 and GDNF in the hippocampus were detected by using ELISA kits. For testing the IL-1β, IL-6 and GDNF, brain tissues were homogenized on ice in the RIPA buffer containing 25 mM Tris-HCl with pH 7.6, 150 mM NaCl, 1% sodium deoxycholate, 0.1% SDS and a protease inhibitor cocktail containing 10 mg/ml aproteinin, 5 mg/ml […], 5 mg/ml leupetin and 1 mM phenylmethane sulfonylfluoride. For C3 testing, brain tissues were homogenized on ice in the PTR buffer (supplied in the kit). The supernatant was collected for ELISA detection after the homogenate was centrifuged at 13,000 g for 20 min at 4° C. and the protein concentration was determined by the BCA protein assay (Bio-Rad, Hemel Hempstead, Herts, UK). IL-1β, IL-6, C3 and GDNF in supernatant of brain were detected according to the manufacturer's instruction for ELISA, and the amount of them in each sample in the brain was normalized by its total protein content and was expressed as pg/mg protein.

[2] = references [27, 32]; cited from earlier work
[3] = test system: newly generated brain cells; assay: BrdU immunofluorescent staining, brain cell genesis; format: in vivo, mouse; conditions: young adult mice with exercise and surgery; intraperitoneal valeric acid
Protocol: Seven days after surgery, mice were given 7 consecutive intraperitoneal injections of 80 mg/kg 5′-bromo-2′-deoxyuridine (BrdU) at 12:00 once daily as previously described. Mice were sacrificed 5 days later for harvesting hippocampus. Hippocampus was fixed in 4% paraformaldehyde in 0.1 M phosphate-buffered saline at 4° C. for 24 h and embedded in paraffin. Five-micron thick coronal brain sections were cut sequentially from Bregma −2 to −4 mm. Antigen retrieval was performed by incubating sections with sodium citrate buffer containing 10 mM sodium citrate, 0.05% Tween 20 (pH 6.0) at 95-100° C. for 20 min. DNA denaturation was done by incubating with 1 N HCl on ice for 3 min, 2 N HCL at room temperature for 3 min, and at 37° C. for 6 min. Sections were blocked with 5% donkey serum in phosphate-buffered saline (PBS) containing 0.5% triton-X 100 for 2 h at room temperature. […] Images were acquired with a fluorescence microscope with a charge-coupled device camera (High Mag Olympus BX51) and a LSM710 confocal microscopy system (ZEISS). […] The number of all cells positively stained for an interested marker or the combination of two markers in the sub-granular zone of the dentate gyrus of each section was counted. The quantitative analyses were performed in a blinded manner.

## CCCCC(=O)O [valeric acid]
C57BL/6J mice
  performance in novel object recognition test: impaired the performance
IL-17; mice without MCAO, valeric sodium 100 mg/kg intraperitoneal for 7 days
  IL-17 in the brain (cerebral cortex): increase
IL-17; young mice with brain ischemia (120-min MCAO), intraperitoneal valeric acid
  IL-17 in the brain: did not increase
[1]
  amount of valeric acid in the brain (cerebral cortex): increased
GDNF
  GDNF levels in the hippocampus: decreased
[2]
  crossing of blood-brain barrier: can cross blood-brain barrier
[3]
  exercise attenuation of the decrease of newly generated brain cells: this attenuation was blocked

From patent publication US20250319139A1, “METHODS FOR TREATING NEUROINFLAMMATION” (University of Virginia Patent Foundation, priority 2021, published 2025)
